# Experiments:
# SMNA7 cells = assay: Morphology (neurite-like structure) of SMNA7 cells; type: cell-based; details: after treating with b-isox
# From the text: We investigate whether baicalein can act as a pharmacological chaperone to refold misfolded SMNA7 into a functional prion-like domain, as shown in FIG. 8 (FIG. 10a). […] PFN1 is a known SMN interactor in the cytosol. We further examined whether baicalein attenuated the degradation of the SMNA7 protein. […] We found baicalein increased the length of axons from NSC34 cells expressing SMNA7 by approximately 2-fold (FIG. 10g).
# SMN = molecular target: T1, SMN (Homo sapiens, UniProt Q16637); assay: B-isox precipitation, SMN; type: binding; details: 100 μM b-isox, lysates of mes23.5 and 293T cells, 4° C.
# T1 construct: endogenous in cells; host or cells: 293T (also mes23.5)
# T1 sequence (Q16637 2-294): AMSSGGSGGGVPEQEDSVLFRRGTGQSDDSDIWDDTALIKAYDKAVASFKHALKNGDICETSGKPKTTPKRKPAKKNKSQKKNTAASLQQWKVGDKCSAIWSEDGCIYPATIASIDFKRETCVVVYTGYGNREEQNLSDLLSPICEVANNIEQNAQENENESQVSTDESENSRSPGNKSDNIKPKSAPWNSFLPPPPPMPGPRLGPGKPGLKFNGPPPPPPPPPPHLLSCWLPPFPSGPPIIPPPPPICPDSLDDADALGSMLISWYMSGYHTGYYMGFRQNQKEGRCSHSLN
# Experimental: (§1) B-isox Precipitation: The 293T cells were harvested and lysed with RIPA buffer. The protein concentration was adjusted to 1 to 10 mg/mL, and 10 mM biotinylated isoxazole was added to the cell lysate to a final concentration of 100 to 200 µM. The mixtures were then incubated at 4° C. for 60 min, centrifuged at 15000 rpm for 15 min at 4° C., and the supernatant was discarded. The entire reaction volumes were subjected to SDS-PAGE and western blotting.
# Biotinylated isoxazole (b-isox), a recently identified specific chemical probe, specifically recognizes the cross-β prion-like polymer and sequentially precipitates with proteins with low complexity, prion-like domains, or phase-separated domains, such as TDP-43 and Fus. We initially incubated 100 μM b-isox with cell lysates of mes23.5 and 293T cells at 4° C. to chemically precipitate whole prion-like proteins and then analyzed the efficiency of SMN binding by western blotting to assess the prion-like or phase transition potential of SMN (FIGS. 8a and b). […] H3K4me3 proteins were used as control for insoluble loading (FIG. 8c). Indeed, insoluble SMN has been reported to be important for the assembly of Cajal bodies (CBs) via the SUMO-like interacting motif (SIM-like). Thus, sumoylation is one of the cellular regulatory mechanisms that trigger nuclear SMN to form the separated phase though cross-β polymerization.
# Rb = molecular target: T2, Rb (Homo sapiens, UniProt P06400); assay: B-isox precipitation, Rb; type: binding; details: 100 μM b-isox, lysates of 293T cells, 4° C.
# T2 construct: endogenous in cells; host or cells: 293T
# T2 sequence (P06400 1-928): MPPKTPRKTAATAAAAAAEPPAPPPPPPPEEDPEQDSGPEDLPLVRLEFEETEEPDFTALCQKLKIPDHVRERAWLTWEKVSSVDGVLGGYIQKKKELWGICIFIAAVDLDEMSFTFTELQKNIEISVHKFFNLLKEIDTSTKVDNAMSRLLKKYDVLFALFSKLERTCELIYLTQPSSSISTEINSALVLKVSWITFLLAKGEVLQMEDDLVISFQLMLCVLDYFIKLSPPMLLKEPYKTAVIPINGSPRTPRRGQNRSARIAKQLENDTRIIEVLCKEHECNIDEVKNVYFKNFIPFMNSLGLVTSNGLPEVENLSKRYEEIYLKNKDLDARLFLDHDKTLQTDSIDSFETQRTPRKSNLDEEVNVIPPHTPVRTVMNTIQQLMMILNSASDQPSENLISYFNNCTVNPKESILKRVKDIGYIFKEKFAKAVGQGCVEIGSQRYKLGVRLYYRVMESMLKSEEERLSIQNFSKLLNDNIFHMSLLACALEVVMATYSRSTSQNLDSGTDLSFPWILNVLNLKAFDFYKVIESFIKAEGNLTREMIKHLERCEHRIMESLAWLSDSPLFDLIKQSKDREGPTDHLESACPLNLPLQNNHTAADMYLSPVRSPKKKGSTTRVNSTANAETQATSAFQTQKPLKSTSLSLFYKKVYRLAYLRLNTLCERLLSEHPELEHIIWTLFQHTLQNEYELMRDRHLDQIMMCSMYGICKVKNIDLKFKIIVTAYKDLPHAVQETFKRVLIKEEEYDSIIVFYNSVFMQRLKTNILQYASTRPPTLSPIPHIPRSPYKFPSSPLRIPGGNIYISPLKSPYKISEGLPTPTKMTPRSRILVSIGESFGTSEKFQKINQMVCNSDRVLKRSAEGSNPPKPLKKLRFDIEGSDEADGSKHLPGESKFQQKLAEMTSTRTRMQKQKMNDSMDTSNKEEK
# Experimental: as §1
# We incubated 100 μM b-isox with cell lysates of 293T cells at 4° C. to chemically precipitate whole prion-like proteins and then analyzed the efficiency of Rb binding by western blotting to assess the prion-like or phase transition potential of Rb (FIG. 22). […] The N-terminus of Rb (aa. 10-56) stabilizes prion-like conformation (FIG. 22c). Deletion of Rb N-terminus leads to protein degradation (FIG. 22d).
# [1] = molecular target: T3, TDP-43 and Lam B recombinant proteins (Homo sapiens, UniProt Q13148); assay: In vitro assembly of TDP-43 and Lam B filaments (electron microscopy); type: biochemical; details: 3 μM proteins, b-isox 100 μM, 2 hr, RT
# T3 construct: Purified full-length TDP-43 and Lam B recombinant proteins (equivalent 3 μM monomer)
# T3 sequence (Q13148 whole entry): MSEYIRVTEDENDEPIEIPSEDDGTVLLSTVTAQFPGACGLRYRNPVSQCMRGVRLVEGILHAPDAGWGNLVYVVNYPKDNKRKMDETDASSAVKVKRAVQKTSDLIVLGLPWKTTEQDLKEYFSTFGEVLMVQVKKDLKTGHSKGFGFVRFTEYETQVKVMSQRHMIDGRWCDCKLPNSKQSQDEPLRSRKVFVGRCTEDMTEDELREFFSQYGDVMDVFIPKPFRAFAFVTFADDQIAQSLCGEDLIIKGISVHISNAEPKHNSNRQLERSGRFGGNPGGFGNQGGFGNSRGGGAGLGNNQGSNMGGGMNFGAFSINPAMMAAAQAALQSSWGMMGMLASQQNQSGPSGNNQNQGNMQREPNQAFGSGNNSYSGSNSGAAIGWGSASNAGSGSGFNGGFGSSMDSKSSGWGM
# Experimental: To investigate the de novo mechanism of heterotypic interactions of the cross-β, we incubated TDP-43 and Lam B recombinant proteins with or without b-isox for 2 hr in vitro. […] In cells, the percentage of cross-β conformers of LC protein was approximately 10˜70% by the b-isox binding analysis, e.g. 21.2% cross-β conformers of TDP-43 in Mes23.5 dopaminergic neurons (FIG. 13j). We assume that inside the cells, most of the intrinsically disordered LC domains are protected through structure folding or binding with other proteins that limits the cross-β-nucleating reactions.
# PFN1 = molecular target: T4, PFN1 (Homo sapiens, UniProt P07737); assay: B-isox precipitation, PFN1; type: binding; details: 293T cell fractions
# T4 construct: endogenous in cells; host or cells: 293T
# T4 sequence (P07737 whole entry): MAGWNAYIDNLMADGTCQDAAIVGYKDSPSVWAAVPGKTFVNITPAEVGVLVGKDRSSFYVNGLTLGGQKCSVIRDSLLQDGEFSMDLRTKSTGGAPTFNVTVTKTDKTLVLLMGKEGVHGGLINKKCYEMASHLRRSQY
# Experimental: as §1
# Because visible SMN granules were not observed in the cytosol under normal conditions, we deduced that SMN polymers may participate in heteromeric interactions with other prion-like proteins to fulfill biological functions in the cytosol. […] Mutations in PFN1 cause co-aggregation with TDP-43 in patients with familial amyotrophic lateral sclerosis (ALS), supporting the hypothesis that PFN1 is a prion-like protein. […] Thus, we postulated that these interactions were mediated by prion-like nature. Furthermore, we incubated full-length SMN or a panel of exon deletion constructs of SMN with b-isox and then performed a western blot analysis to identify the b-isox binding site in SMN. […] The domains encoded by exons 2b and 6 have consistently been reported to self-interact. […] Based on the results of the solubility examination, variants containing exons 6-7 were not detected in the insoluble fraction, although those variants formed visible granules. […]
smiles,measurement,setting,value
"O=C1N[C@H]2[C@H](CS[C@H]2CCCCC(=O)OCCCCCCNC(=O)c2cc(-c3cccs3)on2)N1 [b-isox, biotinylated isoxazole]",morphology of SMNA7 cells,SMNA7 cells,became round and detached
same,precipitation of SMN by b-isox,SMN,precipitation of both SMN and sumoylated SMN
same,precipitation of Rb by b-isox,Rb,precipitation of Rb
same,short cylindrical filaments of TDP-43 and Lam B,[1],disrupted
same,precipitation of PFN1 by b-isox,PFN1,precipitated

# Source: patent US20210121438A1, “METHODS FOR TREATING OR PREVENTING CONFORMATION DISEASES AND METHODS FOR DRUG SCREENING” (GARAGE BRAIN SCIENCE CO., LTD, priority 2018, published 2021)
